Structures are written as SMILES. ± gives the standard deviation of the averaged measurements.

Common to all, as to test: drug sensitivity score (DSS) (DSS score); higher = more sensitive (stronger growth inhibition); extreme values may be limits of the assay
For experiment [1], the system named is Ba/F3 P210-BCR-ABL1 RUNX1wt/wt control (mouse). In a few lines:
(§1)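 Mouse Ba/F3 cells carrying P210-BCR-ABL1, CRISPR/Cas9-edited at runx1 exon 4 or edited-control clones, were screened against a 528-compound library on pre-printed 384-well plates. Each compound ran at five concentrations spanning a 10,000-fold range, with 10,000 cells per well in RPMI with 10% FBS for 72 h at 37 °C and 5% CO2. CellTiter-Glo luminescence was scaled between vehicle and positive-control wells. A drug sensitivity score summarised each dose-response, averaged over two replicates.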

The subject of experiment [2] is Ba/F3 P210-BCR-ABL1 RUNX1-/- (mouse). In a few lines: as §1
Experiment [3] has as its system Ba/F3 P210-BCR-ABL1 RUNX1-/mut (mouse). In a few lines:
as §1

For the molecule `CC(C)(C)C[C@@H]1N[C@@H](C(=O)N[C@H]2CC[C@H](O)CC2)[C@H](c2cccc(Cl)c2F)[C@]12C(=O)Nc1cc(Cl)ccc12`, the drug sensitivity score in experiment [1] amounted to 0.75 ± 0.35; in experiment [2], 6.65 ± 1.3; in experiment [3], 6.95 ± 1.9.

As to `CC(C)(C)c1cc(NC(=O)Nc2ccc(Oc3ccnc4[nH]c(=O)cnc34)cc2F)n(-c2ccccc2)n1`, the values for the drug sensitivity score in experiment [1], in experiment [2] and in experiment [3] were 17.4 ± 0.21, 25.9 ± 0.78 and 20.9 ± 0.49, respectively.

Take `CC[C@@H]1[C@H](F)C(=O)N[C@@H]1COc1nccc2cc(C(N)=O)c(OC)cc12`: the drug sensitivity score was 0.25 ± 0.35 in experiment [1], 1.3 ± 0.42 in experiment [2] and 0.9 ± 1.3 in experiment [3].

Turning to `CN(C)CC#Cc1ccc(OCCCc2sc(N3CCc4cccc(C(=O)Nc5nc6ccccc6s5)c4C3)nc2C(=O)O)c(F)c1`, the drug sensitivity score came to 3 ± 0.14 in experiment [1], 5.55 ± 0.071 in experiment [2] and 5.95 ± 4.7 in experiment [3].

Take `CN1CCN(C2CCC(n3cc(-c4ccc(Oc5ccccc5)cc4)c4c(N)ncnc43)CC2)CC1` (stereo not given): the figures for the drug sensitivity score in experiment [1], in experiment [2] and in experiment [3] were 16.6 ± 0.71, 23.4 ± 0.28 and 17.9 ± 1.1, respectively.

As for `CNS(=O)(=O)Nc1nccc(Cc2c(C)c3ccc(Oc4ncccn4)cc3oc2=O)c1F`, the drug sensitivity score in experiment [1] worked out at 0; in experiment [2], 2.4 ± 0.14; in experiment [3], 0.3 ± 0.42.

Take `CNc1ncc2cc(-c3cc(NC(=O)NCCC(C)(C)C)c(F)cc3C)c(C)nc2n1`: the drug sensitivity score in experiment [1] worked out at 9.45 ± 0.21; in experiment [2] it was 22.3 ± 0.28; in experiment [3], 15.6 ± 0.64.

`CONC(=O)c1ccccc1Nc1cc(Nc2cc(C)nn2C(C)C)ncc1Cl`: the drug sensitivity score in experiment [1] turned out to be 0; in experiment [2], 0.15 ± 0.21; in experiment [3], 0.15 ± 0.21.

For `CO[C@@H](C)Cn1c(=O)n(C)c2cnc3ccc(-c4cncc(C(C)(C)O)c4)cc3c21`, the figures for the drug sensitivity score in experiment [1], in experiment [2] and in experiment [3] were 10.25 ± 0.071, 12.9 ± 0.14 and 14.3 ± 1.4, respectively.

In the case of `COc1ccc2[nH]cc(/C=C3\C(=O)Nc4ccc(NC(=O)CCN5CCCCC5)cc43)c2c1`, the drug sensitivity score was 6.05 ± 1.1 in experiment [1], 14.8 ± 2.5 in experiment [2] and 15.2 ± 4.4 in experiment [3].

On to `C[C@H]1C[C@@H](n2c(Nc3ccc(OC(F)(F)F)cc3)nc3cc(CCC(=O)O)ccc32)CC(C)(C)C1`, for which the drug sensitivity score in experiment [1] is 0; in experiment [2], 0.8 ± 1.1; in experiment [3], 1.4 ± 2.

Turning to `Cc1c(-c2c(-c3ccc(F)o3)sc3ncnc(O[C@H](Cc4ccccc4OCc4ccnn4CC(F)(F)F)C(=O)O)c23)ccc(OCCN2CCN(C)CC2)c1Cl`, the drug sensitivity score in experiment [1] worked out at 0; in experiment [2], 1.7 ± 2.4; in experiment [3], 3.45 ± 4.9.

`Cc1c(-c2ccc(N3CCc4cccc(C(=O)Nc5nc6ccccc6s5)c4C3)nc2C(=O)O)cnn1CC12CC3CC(CC(C3)C1)C2`: the drug sensitivity score in experiment [1], in experiment [2] and in experiment [3] was 0 throughout.

As for `Cn1cc(-c2ccc(F)c(C(F)(F)F)c2)nc1C1CCN(c2ncnc3[nH]ncc23)CC1`, the results for the drug sensitivity score in experiment [1], in experiment [2] and in experiment [3] were 0, 1.55 ± 1.3 and 0.7 ± 0.99, respectively.

Take `Cn1cc(C2=Nc3cc(NC(=O)C(N)C4CCCCC4)cc4c3C2=CNNC4=O)cn1` (stereo not given): the drug sensitivity score in experiment [1] came to 7.95 ± 1.1; in experiment [2], 18.2 ± 0.14; in experiment [3], 16 ± 0.42.

Turning to `O=C(NC[C@H](O)CN1CCc2ccccc2C1)c1cc(NC2COC2)ncn1`, the drug sensitivity score in experiment [1] was found to be 0; in experiment [2], 7.8 ± 1.3; in experiment [3] it was 5.2 ± 3.5.

Turning to `O=C(NCc1ccncc1)C12CC3CC(C1)CC(c1ccc(Cl)cc1)(C3)C2`, the drug sensitivity score in experiment [1] is 2.8 ± 0.85; in experiment [2] it was 4.7 ± 0.57; in experiment [3], 3.3 ± 1.8.

Regarding `O=C(O)c1ccc(CN2CCC(CN[C@@H]3C[C@H]3c3ccccc3)CC2)cc1`, the drug sensitivity score in experiment [1] came out at 0; in experiment [2] it was 1.1 ± 1.1; in experiment [3], 0.

Take `O=C1Cc2cc(C(=O)NC3C[C@H]4CC[C@@H](C3)N4S(=O)(=O)CC3CCN(CCCC(F)(F)F)CC3)c(Cl)cc2N1` (stereo not given in full): the values for the drug sensitivity score in experiment [1], in experiment [2] and in experiment [3] were 1.35 ± 1.9, 0 and 0.05 ± 0.071, respectively.

In the case of `COc1ccc(C[C@H](NC(=O)[C@H](C)NC(=O)CN2CCOCC2)C(=O)N[C@@H](Cc2ccccc2)C(=O)C2(C)CO2)cc1` (stereo in doubt) [ONX-0914], the results for the drug sensitivity score in experiment [1], in experiment [2] and in experiment [3] were 17.8 ± 0.28, 22.05 ± 0.21 and 23.2 ± 2.6, respectively.

For `Cn1cc(C[C@@H](N)C(=O)O)c2ccccc21` [1-methyl-D-tryptophan], the drug sensitivity score in experiment [1], in experiment [2] and in experiment [3] was 0 each time.

`CC/C(=C(\c1ccc(O)cc1)c1ccc(OCCN(C)C)cc1)c1ccccc1` [4-hydroxytamoxifen]: the drug sensitivity score in experiment [1] amounted to 8.6 ± 0.28; in experiment [2], 8.2 ± 0.42; in experiment [3], 8.3 ± 1.1.

On to `Nc1ncnc2c1nc(N)n2[C@@H]1O[C@H](CO)[C@@H](O)[C@H]1O` [8-amino-adenosine], for which the drug sensitivity score in experiment [1] stood at 9.4 ± 0.85; in experiment [2], 19.7 ± 0.42; in experiment [3] it was 15.8 ± 2.4.

In the case of `Nc1ncnc2c1nc(Cl)n2[C@@H]1O[C@H](CO)[C@@H](O)[C@H]1O` [8-chloro-adenosine], the drug sensitivity score in experiment [1] is 7.95 ± 0.21; in experiment [2] it was 15.7 ± 1.1; in experiment [3] it was 13.8 ± 1.3.

`COc1cc2c(cc1OCCCN1CCCC1)N=C(N)C21CCC1` [A-366]: the drug sensitivity score in experiment [1] amounted to 0; in experiment [2], 6.1 ± 0.57; in experiment [3], 6.5 ± 3.

Turning to `C[C@H](Nc1ncnc2[nH]cnc12)c1cc2ccc(F)cc2nc1-c1ccccn1` [AMG319], the results for the drug sensitivity score in experiment [1], in experiment [2] and in experiment [3] were 0, 0.15 ± 0.21 and 1.1 ± 1.6, respectively.

Take `CC(C)[C@@H](CS(=O)(=O)C(C)C)N1C(=O)[C@@](C)(CC(=O)O)C[C@H](c2cccc(Cl)c2)[C@H]1c1ccc(Cl)cc1` [AMG-232]: the drug sensitivity score in experiment [1] amounted to 3.7 ± 0.28; in experiment [2] it was 12.7 ± 2.3; in experiment [3], 11.2 ± 1.6.

For `COCCOc1cnc2ccn([C@H](C)c3nnc4c(F)cc(-c5cnn(C)c5)cn34)c(=O)c2c1` [AMG-337], the drug sensitivity score in experiment [1], in experiment [2] and in experiment [3] was 0 in each case.

On to `CC1CCC(n2c3cnccc3c3cnc(Nc4ccc5c(n4)CCN(C(=O)CO)C5)nc32)CC1` (stereo not given) [AMG-925], for which the drug sensitivity score turned out to be 0 in experiment [1], 4.2 ± 0.42 in experiment [2] and 1.8 ± 2.1 in experiment [3].

For the molecule `COCC1(CO)C(=O)C2CCN1CC2` (stereo not given) [APR-246], the drug sensitivity score in experiment [1] was determined as 0.35 ± 0.49; in experiment [2], 1.05 ± 1.5; in experiment [3], 1.4 ± 2.

`CC(C)[C@H](C(=O)Nc1ccc(C(=O)NO)cc1)c1ccccc1` [AR-42]: the drug sensitivity score in experiment [1] worked out at 16.5 ± 0.14; in experiment [2], 20.3 ± 0.85; in experiment [3] it was 17.9 ± 1.1.

Turning to `Cc1sc2c(c1C)C(c1ccc(Cl)cc1)=N[C@@H](CC(=O)Nc1ccc(OCCOCCOCCOCCNc3cccc4c3C(=O)N(C3CCC(=O)NC3=O)C4=O)cc1)c1nnc(C)n1-2` (stereo not given in full) [ARV-825], the drug sensitivity score in experiment [1] worked out at 17.9 ± 0.78; in experiment [2], 19.8 ± 0.14; in experiment [3], 18.7 ± 3.1.

Take `COc1cc(N2CCC(N3CCN(C)CC3)CC2)ccc1Nc1ncnc(Nc2ccccc2S(=O)(=O)C(C)C)n1` [ASP3026]: the figures for the drug sensitivity score in experiment [1], in experiment [2] and in experiment [3] were 1.05 ± 0.21, 3.95 ± 1.6 and 3.9 ± 3.7, respectively.

For `O=C(NC1CCNCC1)c1n[nH]cc1NC(=O)c1c(Cl)cccc1Cl` [AT7519], the results for the drug sensitivity score in experiment [1], in experiment [2] and in experiment [3] were 2.8 ± 0.42, 11.7 ± 3.6 and 13.6 ± 4, respectively.

Consider `CN[C@@H](C)C(=O)N[C@H]1CN(C(=O)CC(C)C)CC[C@H]2CC[C@@H](C(=O)NC(c3ccccc3)c3ccccc3)N2C1=O` [AT-406], for which the drug sensitivity score in experiment [1] was determined as 13 ± 1.4; in experiment [2], 18.4 ± 1.8; in experiment [3], 4.4 ± 6.2.

As for `CC[C@H](CC#N)OC(=O)N[C@@H](C)c1cccc(NC(=O)Nc2ccc(-c3cnco3)c(OC)c2)c1` [AVN944], the drug sensitivity score in experiment [1] came to 21.7 ± 1.6; in experiment [2], 25.9 ± 0.42; in experiment [3] it was 24.95 ± 0.21.

Regarding `COc1cc(N2CCN(C)CC2)ccc1Nc1nccc(-c2cn(C)c3cnccc23)n1` [AZ191], the drug sensitivity score in experiment [1] was found to be 2.5 ± 0.71; in experiment [2], 7.2 ± 1.4; in experiment [3] it was 7.45 ± 2.2.

Regarding `CN(C)CCCOc1ccc(-c2ccc3ncc4c(c3c2)n(C2CCOCC2)c(=O)n4C)cn1` [AZD0156], the drug sensitivity score in experiment [1] is 0; in experiment [2] it was 6.8 ± 1.7; in experiment [3], 7.6 ± 0.14.

As for `N[C@@H]1CCCN(c2c(/C=C3\SC(=O)NC3=O)cccc2-c2ccccc2)C1` [AZD1208], the drug sensitivity score is 2.4 ± 0.42 in experiment [1], 11.8 ± 0.35 in experiment [2] and 7.05 ± 2.5 in experiment [3].

Consider `Cc1cc(Nc2nc(N[C@@H](C)c3ncc(F)cn3)ncc2Cl)[nH]n1` [AZD1480], for which the drug sensitivity score in experiment [1], in experiment [2] and in experiment [3] was 0 throughout.
